Assay results: patent US9593144B2, “FPR1 antagonist derivatives and use thereof” (CHANG GUNG UNIVERSITY, priority 2014, dated 2017)
Like-named read-outs stand apart in the source and are kept apart here. Square brackets hold non-standard residues; d marks the D form. Peptide text beside a SMILES is read from it. * marks the point of attachment. Hydrocinnamoyl = O=C(CCc1ccccc1)*

What was measured:
[1] = system: human neutrophils; assay: cells; type: cell-based; details: human neutrophils, fMLP/CB, mean ± SEM, n = 3, read-out: Anti-inflammation O2•− generation (IC50)
Description: Tables 5 and 6 explore whether there is an anti-inflamatory effect in the dipeptide derivatives. Because ferricytochrome c cannot penetrate cell membranes, it reacts with superoxide anion extracellularly. Also, there are absorptive reactions at 550 nm, and differences among the absorptive reactions can be used to evaluate the influence on the release of superoxide anion. The elastase is released by degranulation as the neutrophil is activated. Tables 5 and 6 use the substrate, MeO-Suc-Ala-Ala-Pro-Val-p-nitroanilide, with the specificity for reacting with the elastase so as to evaluate the influence of the candidate compound on the elastase release.
Blood was taken from healthy human donors (20-32 years old) by venipuncture, following a protocol approved by the Institutional Review Board at Chang Gung Memorial Hospital. Neutrophils were isolated by a standard method of dextran sedimentation prior to centrifugation in a Ficoll Hypaque gradient and the hypotonic lysis of erythrocytes.
The evaluation of O2.^− generation was based on the SOD-inhibitable reduction of ferricytochrome c. In brief, after supplementation with 0.5 mg ml^−1 ferricytochrome c and 1 mM Ca^2+, neutrophils were equilibrated at 37° C. for 2 min and incubated with drugs […].

[2] = system: human neutrophils; assay: cells; type: cell-based; details: fMLP/CB, mean ± SEM
Protocol: Degranulation of azurophilic granules was determined by elastase release as described above. Experiments were performed using MeO-Suc-[…]-nitroanilide as the elastase substrate. […] Results are expressed as the percentage of elastase release in the drug-free control group, DMSO. Tables 5 and 6 explore whether there is an anti-inflamatory effect in the dipeptide derivatives. Because ferricytochrome c cannot penetrate cell membranes, it reacts with superoxide anion extracellularly. Also, there are absorptive reactions at 550 nm, and differences among the absorptive reactions can be used to evaluate the influence on the release of superoxide anion. The elastase is released by degranulation as the neutrophil is activated. Tables 5 and 6 use the substrate, MeO-Suc-[…]-nitroanilide, with the specificity for reacting with the elastase so as to evaluate the influence of the candidate compound on the elastase release. Blood was taken from healthy human donors (20-32 years old) by venipuncture, following a protocol approved by the Institutional Review Board at Chang Gung Memorial Hospital. Neutrophils were isolated by a standard method of dextran sedimentation prior to centrifugation in a Ficoll Hypaque gradient and the hypotonic lysis of erythrocytes. […] The degranulation of azurophilic granules was determined by elastase release as described above. Experiments were performed using MeO-Suc-[…]-nitroanilide as the elastase substrate. Briefly, after supplementation with MeO-Suc-[…]-nitroanilide ([…] neutrophils (6×10^5 ml^-1) were equilibrated at 37° C. for 2 min and incubated with drugs for 5 min. […] The results are expressed as the percentage of elastase release in the drug-free control group.

melting point [°C] | IC50 ([1]; Neutrophil, Table 1) [µM] | IC50 ([2]; Neutrophil, n = 3, Table 1, read-out: Anti-inflammation NE release (IC50)) [µM] | IC50 ([1]; Neutrophil, Table 3) [µM] | IC50 ([2]; Neutrophil, n = 3, Table 3, read-out: Anti-inflammation NE release (IC50)) [µM] | IC50 ([1]; Table 3) [µM] | IC50 ([2]; n = 3, Table 3, read-out: Anti-inflammation NE release (IC50)) [µM] | Compound
159 to 161 | 10.1 ± 3.05 | 12.5 ± 4.87 | – | – | – | – | COC(=O)[C@@H](Cc1ccccc1)NC(=O)[C@H](Cc1c[nH]c2ccccc12)NC(=O)CCc1ccccc1 [Compound 9, N—(N-Phenylpropanoyl-L-tryptophanyl)-D-phenylalanine methyl ester] (Hydrocinnamoyl-Trp-[dF]-OMe)
151 to 153 | – | – | > 30 | > 30 | – | – | O=C(N[C@@H](Cc1c[nH]c2ccccc12)C(=O)N[C@@H](CO)Cc1ccccc1)c1ccccc1 [Compound 13a, N—(N-Benzoyl-L-tryptophanyl)-D-phenylalaninol]
120 to 122 | – | – | – | – | > 30 | > 30 | O=C(N[C@@H](Cc1c[nH]c2ccccc12)C(=O)N[C@@H](CO)Cc1ccccc1)c1ccccc1 [Compound 13b, N—(N-Benzoyl-L-tryptophanyl)-D-phenylalaninol]
